From patent US8101649B2, “N-acylhydrazone derivatives useful as modulators of nicotinic acetylcholine receptors” (Neurosearch A/S, priority 2007, dated 2012)

Target: T1, wild-type nAChR α7 receptors (Homo sapiens, UniProt P36544)
T1 construct: expressed in transfected cells; host or cells: Xenopus laevis oocytes
T1 sequence (P36544 23-502): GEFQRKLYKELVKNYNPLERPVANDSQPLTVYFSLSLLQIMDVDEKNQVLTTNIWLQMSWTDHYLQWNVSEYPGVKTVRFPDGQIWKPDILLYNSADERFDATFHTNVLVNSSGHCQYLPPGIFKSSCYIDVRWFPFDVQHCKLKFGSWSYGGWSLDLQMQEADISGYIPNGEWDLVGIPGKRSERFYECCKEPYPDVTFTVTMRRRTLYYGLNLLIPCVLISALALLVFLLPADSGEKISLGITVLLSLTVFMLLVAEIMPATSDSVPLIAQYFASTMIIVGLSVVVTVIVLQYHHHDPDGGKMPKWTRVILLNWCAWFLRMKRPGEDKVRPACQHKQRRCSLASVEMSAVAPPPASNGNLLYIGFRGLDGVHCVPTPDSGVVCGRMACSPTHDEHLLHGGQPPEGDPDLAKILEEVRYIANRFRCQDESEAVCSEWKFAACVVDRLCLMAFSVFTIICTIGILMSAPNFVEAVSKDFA
Test: Positive modulation of acetylcholine-induced currents at nAChR α7 receptors expressed in Xenopus laevis oocytes (two-electrode voltage clamp)
Assay type: cell-based
Conditions: 100 μM acetylcholine; (test-control)/control*100%; fitted to the sigmoidal logistic equation
Protocol: In this example the positive modulation of wild-type nAChR α7 receptors by Compound 3 (FIGS. 1A and 1B) was determined using nAChR α7 receptors heterologously expressed in Xenopus laevis oocytes.
The electrical current through the nAChR α7 channel was measured using conventional two-electrode voltage clamp and nAChR α7 currents were activated by applying pulses of agonist-containing solution onto the nAChR α7 expressing oocyte.
In brief, the oocytes were placed in a recording chambers and continuously superfused with an Oocyte Ringer (OR) solution containing 90 mM NaCl, 2.5 mM KCl, 2.5 mM CaCl2, 1 mM MgCl2 and 5 mM HEPES (pH adjusted to 7.4). The oocytes were clamped at −60 mV and currents were induced by applying 20 s pulses of 100 μM acetylcholine dissolved in OR. The intervals between the acetylcholine applications were 5 minutes, during which the oocytes were washed with OR. The first three applications were control applications to insure a constant response level of 100 μM acetylcholine.
The positive modulation in the presence of Compound 3 was calculated as (test-control)/control*100% and the concentration response curve for this positive modulation was fitted to the sigmoidal logistic equation: I=Imax/(1+(EC50/[compound])^n), where Imax represents the maximal modulation of the control response, EC50 is the concentration causing a half maximal response, and n is the slope coefficient.
For `O=C(CCc1c[nH]c2ccccc12)N/N=C/c1ccc(F)cc1` [Compound 3, 3-(1H-Indol-3-yl)-propionic acid [1-(4-fluoro-phenyl)-meth-(E)-ylidene]-hydrazide], the “Imax (maximal modulation of the acetylcholine control response)” value was 140%.

Same assay, conditions: 100 μM acetylcholine; oocytes clamped at −60 mV; 0.01-31.6 μM compound applied 30 s before and during acetylcholine; read-out: EC50 (concentration causing a half maximal response) for positive modulation of acetylcholine responses
In the case of `O=C(CCc1c[nH]c2ccccc12)N/N=C/c1ccc(F)cc1` [Compound 3, 3-(1H-Indol-3-yl)-propionic acid [1-(4-fluoro-phenyl)-meth-(E)-ylidene]-hydrazide], the EC50 is reported as 4.1 µM.

Same assay, conditions: 0.01-31.6 μM compound with 100 μM acetylcholine
In the case of `O=C(CCc1c[nH]c2ccccc12)N/N=C/c1ccc(F)cc1` [Compound 3, 3-(1H-Indol-3-yl)-propionic acid [1-(4-fluoro-phenyl)-meth-(E)-ylidene]-hydrazide], the “effect on acetylcholine-induced current amplitude” value is reported as “robust increase”.

Tested on: not given
Test: not given
Conditions: not given
`O=C(CCc1c[nH]c2ccc(F)cc12)N/N=C/c1ccccc1` [Compound 3I, 3-(5-Fluoro-1H-indol-3-yl)-propionic acid [1-phenyl-meth-(E)-ylidene]-hydrazide] gave a melting point of 171.2 to 173.9 °C. Molecule `O=C(CCc1c[nH]c2ccccc12)N/N=C/c1ccc(Cl)cc1` [Compound 3G, 3-(1H-Indol-3-yl)-propionic acid [1-(4-chloro-phenyl)-meth-(E)-ylidene]-hydrazide] has a melting point of 201.5 to 202.5 °C. Work on `O=C(CCc1c[nH]c2ccc(F)cc12)N/N=C/c1ccc(F)cc1` [Compound 3M, 3-(5-Fluoro-1H-indol-3-yl)-propionic acid [1-(4-fluoro-phenyl)-meth-(E)-ylidene]-hydrazide] yielded a melting point of 213.8 to 215.3 °C. Molecule `CC1=C/C(=N/NC(=O)CCc2c[nH]c3ccccc23)c2ccccc2C1=O` [Compound 3N, 3-(1H-Indol-3-yl)-propionic acid [3-methyl-4-oxo-4H-naphthalen-(1Z)-ylidene]-hydrazide] has a melting point of 248.6 to 249.5 °C. With `O=C(CCc1c[nH]c2ccc(F)cc12)N/N=C/c1ccccc1F` [Compound 3J, 3-(5-Fluoro-1H-indol-3-yl)-propionic acid [1-(2-fluoro-phenyl)-meth-(E)-ylidene]-hydrazide] the melting point was 132.8 to 134 °C. With `COc1ccc(/C=N/NC(=O)CCc2c[nH]c3ccccc23)cc1` [Compound 3B, 3-(1H-Indol-3-yl)-propionic acid [1-(4-methoxy-phenyl)-meth-(E)-ylidene]-hydrazide] the melting point was 168.3 to 169.7 °C. Molecule `O=C(CCc1c[nH]c2ccccc12)N/N=C/c1ccsc1` [Compound 3D, 3-(1H-Indol-3-yl)-propionic acid [1-thiophen-3-yl-meth-(E)-ylidene]-hydrazide] has a melting point of 145.5 to 148.1 °C. Work on `C/C(=N\NC(=O)CCc1c[nH]c2ccccc12)c1ccccc1` [Compound 3K, 3-(1H-Indol-3-yl)-propionic acid [1-phenyl-eth-(E)-ylidene]-hydrazide] yielded a melting point of 156.2 to 158.2 °C. Molecule `O=C(CCc1c[nH]c2ccccc12)N/N=C1\CCCc2ccccc21` [Compound 3L, 3-(1H-Indol-3-yl)-propionic acid [3,4-dihydro-2H-naphthalen-(1E)-ylidene]-hydrazide] has a melting point of 119.3 to 120.2 °C. Molecule `O=C(CCc1c[nH]c2ccccc12)N/N=C/c1cccs1` [Compound 3F, 3-(1H-Indol-3-yl)-propionic acid [1-thiophen-2-yl-meth-(E)-ylidene]-hydrazide] has a melting point of 146.5 to 149.4 °C. `O=C(CCc1c[nH]c2ccccc12)N/N=C/c1ccccc1F` [Compound 3E, 3-(1H-Indol-3-yl)-propionic acid [1-(2-fluoro-phenyl)-meth-(E)-ylidene]-hydrazide] gave a melting point of 118 to 123 °C. `O=C(CCc1c[nH]c2ccccc12)N/N=C/c1ccccc1` [Compound 3A, 3-(1H-Indol-3-yl)-propionic acid [1-phenyl-meth-(E)-ylidene]-hydrazide] showed a melting point of 169.8 to 171.2 °C.
